Test results taken from patent US20240000814A1, “TREATING ALCOHOL USE DISORDER USING PSILOCYBIN” (New York University, priority 2022, published 2024).

What was measured:
Type in all cases: in vivo, human
AUD patients [1] = experiment: Double-blind randomized trial of psilocybin-assisted treatment of AUD: drinking outcomes by timeline followback; details: for % of Heavy drinking days (PHDD), mean: 32-week double-blind follow-up (weeks 5-36) after first dose, oral psilocybin 25 mg/70 kg then 25-40 mg/70 kg or diphenhydramine 50 mg then 50-100 mg at weeks 4 and 8, with psychotherapy
Procedure: Design: In this double-blind trial, participants were offered 12 weeks of manualized psychotherapy and were randomly assigned to receive psilocybin vs. diphenhydramine during two day-long medication sessions at week 4 and 8. Outcomes were assessed over the 32-week double-blind period following the first dose of study medication.
Interventions: Study medications were psilocybin 25 mg/70 kg vs. diphenhydramine 50 mg (first session) and psilocybin 25-40 mg/70 kg vs. diphenhydramine 50-100 mg (second session). Psychotherapy included motivational enhancement therapy and cognitive-behavioral therapy.
Qualifying participants were assessed at screening, baseline (week 0), and weeks 4, 5, 8, 9, 12, 24, and 36. They were randomly assigned in a 1:1 ratio to receive either psilocybin or diphenhydramine, administered in two eight-hour sessions at weeks 4 and 8. All participants who completed the double-blind observation period (weeks 5-36) and still met safety criteria were offered an open-label psilocybin session at week 38, including four additional psychotherapy sessions and assessment for an additional 18 weeks. Participants received up to a total of $560 for completing assessments in the course of the trial, but were not reimbursed for attending the therapy and medication sessions.
All participants were offered a total of 12 psychotherapy sessions from a team of two therapists including a licensed psychiatrist: 4 before the first medication session, 4 between the first and second medication sessions, and 4 in the month following the second medication session. The psychotherapy, described in detail in a separate publication,^41 included motivational interviewing and cognitive behavioral therapy for AUD as well as material designed to help the participants to manage and make use of the psychoactive effects of the study medication.
Study medication was taken orally in a single opaque capsule of unvarying appearance and weight. Psilocybin doses were weight-based to control for participant body weight, which ranged from 49.0 to 116.1 (mean=78.3, SD=15.6) kg. Doses for the first session were psilocybin 25 mg/70 kg or diphenhydramine 50 mg. Participants received an increased dose in the second session if there were no dose-limiting adverse events and they agreed to the increase. The increased dose of psilocybin was 30 mg/70 kg if the participant's total score on the Pahnke-Richards Mystical Experience Questionnaire (MEQ)^42 was ≥0.6 in the first session (indicating a robust subjective response to the 25 mg/70 kg dose), or 40 mg/70 kg if the MEQ total score in the first session was <0.6. The increased dose of diphenhydramine was 100 mg, regardless of subjective response.
Study medication was administered at approximately 9 AM, after which participants were required to stay in the session room with the therapists for at least 8 hours (except for bathroom breaks). During the session, participants were encouraged to lie on a couch wearing eyeshades and headphones providing a standardized playlist of music. Medications were available in the session room to treat hypertension, severe anxiety, or psychotic symptoms.
The pre-specified primary drinking outcome was the percentage of heavy drinking days (PH DD) during […], assessed at weeks 8, 12, 24, and 36 using the timeline followback, a reliable and valid calendar-based method which is the gold standard outcome for AUD clinical trials.^43-47 Secondary outcomes included percent drinking days (PDD), average drinks per day (DPD), and dichotomous outcomes: abstinence, lack of heavy drinking days, and reduction in World Health Organization risk level^48 by one, two, or three levels. Hair or fingernail samples were collected at week 24 and assayed for ethylglucuronide (EtG) concentration to confirm self-reported abstinence. The Short Index of Problems (SIP-2R)^49 was used to assess drinking-related problems at baseline and weeks 12, 24, and 36. […]

AUD patients [2] = experiment: Safety: blood pressure, heart rate and adverse events in the trial
Procedure: Blood pressure and heart rate were assessed at 30- to 60-minute intervals during the first 6 hours of each medication session. Adverse events were solicited at each post-screening assessment.
Blood pressure and heart rate treatment contrasts were based on MMRM with fixed, categorical effects of treatment and assessment, a treatment-by-assessment interaction, and a fixed covariate (value of each outcome prior to drug administration). All adverse events occurring after informed consent were MedDRA-coded and tabulated, and prevalence within treatment groups (proportion of participants affected) was compared using Fisher's exact tests.

AUD patients [3] = experiment: Subjective effects of study medication, Mystical Experience Questionnaire (MEQ)
Procedure: Subjective effects of psilocybin vs. diphenhydramine were assessed using the States of Consciousness Questionnaire,^42 containing the 43-item Mystical Experience Questionnaire (MEQ), completed immediately after each medication session.
MEQ scores for the first and second medication sessions were computed and contrasted by group (psilocybin vs. diphenhydramine) using t-tests for independent samples.

[4] = 32-week double-blind follow-up (weeks 5-36)
[5] = 32 weeks following the first administration of study medication
[6] = treatment-emergent, within 48 hours of study drug administration

For CN(C)CCOC(c1ccccc1)c1ccccc1 [Diphenhydramine, diphenhydramine], the “% of Drinking days (PDD), mean” value (AUD patients [1]; [4]) was 42.83%, the “Drinks per day (DPD), mean” value (AUD patients [1]; [4]) was 2.26 Drinks per day and the “% of Heavy drinking days (PHDD), mean” value (AUD patients [1]) was 23.57%. For the same molecule, the “% of Heavy drinking days (PHDD), mean” value (AUD patients [1]; listed as diphenhydramine) was 23.6%, the “Abstinence, % of participants” value (AUD patients [1]; Weeks 5-36) was “(8.9) %” and the “Abstinence, No. of participants” value (AUD patients [1]; Weeks 5-36) was 4. For the same molecule, the “No heavy drinking, % of participants” value (AUD patients [1]; Weeks 5-36) was “(11.1) %”, the “No heavy drinking, No. of participants” value (AUD patients [1]; Weeks 5-36) was 5 and the “WHO risk level Decrease 1, % of participants” value (AUD patients [1]; Weeks 5-36) was “(71.1) %”. The “WHO risk level Decrease 2, % of participants” value (AUD patients [1]; Weeks 5-36) was “(40.0) %”, the “WHO risk level Decrease 2, No. of participants” value (AUD patients [1]; Weeks 5-36) was 18 and the “WHO risk level Decrease 3, % of participants” value (AUD patients [1]; Weeks 5-36) was “(13.3) %”. The “WHO risk level Decrease 3, No. of participants” value (AUD patients [1]; Weeks 5-36) was 6, the “WHO risk level Decrease 1, No. of participants” value (AUD patients [1]; Weeks 5-36, relative to 12 weeks prior to screening) was 32 and the “Abstinence, % of participants” value (AUD patients [1]; Weeks 33-36) was “(24.4) %”. The “Abstinence, No. of participants” value (AUD patients [1]; Weeks 33-36) was 11, the “No heavy drinking, % of participants” value (AUD patients [1]; Weeks 33-36) was “(40.0) %” and the “No heavy drinking, No. of participants” value (AUD patients [1]; Weeks 33-36) was 18. For the same molecule, the “WHO risk level Decrease 1, % of participants” value (AUD patients [1]; Weeks 33-36) was “(64.4) %”, the “WHO risk level Decrease 1, No. of participants” value (AUD patients [1]; Weeks 33-36) was 29 and the “WHO risk level Decrease 2, % of participants” value (AUD patients [1]; Weeks 33-36) was “(40.0) %”. For the same molecule, the “WHO risk level Decrease 2, No. of participants” value (AUD patients [1]; Weeks 33-36) was 18, the “WHO risk level Decrease 3, % of participants” value (AUD patients [1]; Weeks 33-36) was “(17.8) %” and the “WHO risk level Decrease 3, No. of participants” value (AUD patients [1]; Weeks 33-36) was 8. The “Adverse events reported, number” value (AUD patients [2]; [5]) was 85, the Serious adverse events (AUD patients [2]; [5]) was “Three” and the “Headaches, participants affected / treated” value (AUD patients [2]; [6]) was 2/45. For the same molecule, the “Headaches, percent of participants” value (AUD patients [2]; [6]) was 4.4%, the “Mean MEQ score” value (AUD patients [3]; Session 1, psilocybin 25 mg/70 kg or diphenhydramine 50 mg) was 0.10 (SD=0.13) and the “Mean MEQ score” value (AUD patients [3]; Session 2, psilocybin 25-40 mg/70 kg or diphenhydramine 50-100 mg) was 0.11 (SD=0.16).
